Experimental data from the CheMixHub viscosity set.

Test: xn = mol fraction of the nth substance listed

CCCCCCC + CCO
Conditions	viscosity [mPa·s]
293.15 K, 101 kPa, x1 = 0.1005	0.9853
293.15 K, 101 kPa, x1 = 0.202	0.8256
293.15 K, 101 kPa, x1 = 0.3022	0.7149
293.15 K, 101 kPa, x1 = 0.4016	0.6285
293.15 K, 101 kPa, x1 = 0.5079	0.567
293.15 K, 101 kPa, x1 = 0.5967	0.516
293.15 K, 101 kPa, x1 = 0.7041	0.4658
293.15 K, 101 kPa, x1 = 0.8008	0.4428
293.15 K, 101 kPa, x1 = 0.8935	0.423
298.15 K, 100 kPa, x1 = 0.0472	1.002
298.15 K, 100 kPa, x1 = 0.1004	0.9149
298.15 K, 100 kPa, x1 = 0.199	0.7776
298.15 K, 100 kPa, x1 = 0.3003	0.6663
298.15 K, 100 kPa, x1 = 0.3994	0.5825
298.15 K, 100 kPa, x1 = 0.507	0.5154
298.15 K, 100 kPa, x1 = 0.5988	0.4742
298.15 K, 100 kPa, x1 = 0.6751	0.449
298.15 K, 100 kPa, x1 = 0.7394	0.4327
298.15 K, 100 kPa, x1 = 0.8085	0.4191
298.15 K, 100 kPa, x1 = 0.9003	0.4048
298.15 K, 101 kPa, x1 = 0.1005	0.9069
298.15 K, 101 kPa, x1 = 0.202	0.7656
298.15 K, 101 kPa, x1 = 0.3022	0.6673
298.15 K, 101 kPa, x1 = 0.4016	0.5856
298.15 K, 101 kPa, x1 = 0.5079	0.5214
298.15 K, 101 kPa, x1 = 0.5967	0.4815
298.15 K, 101 kPa, x1 = 0.7041	0.4422
298.15 K, 101 kPa, x1 = 0.8008	0.4149
298.15 K, 101 kPa, x1 = 0.8935	0.4021
298.15 K, 101.33 kPa, x2 = 0.0831	0.413
298.15 K, 101.33 kPa, x2 = 0.1075	0.394
298.15 K, 101.33 kPa, x2 = 0.1985	0.426
298.15 K, 101.33 kPa, x2 = 0.1999	0.408
298.15 K, 101.33 kPa, x2 = 0.2981	0.444
298.15 K, 101.33 kPa, x2 = 0.3001	0.433
298.15 K, 101.33 kPa, x2 = 0.3932	0.465
298.15 K, 101.33 kPa, x2 = 0.4315	0.487
298.15 K, 101.33 kPa, x2 = 0.5009	0.517
298.15 K, 101.33 kPa, x2 = 0.5079	0.521
298.15 K, 101.33 kPa, x2 = 0.5973	0.584
298.15 K, 101.33 kPa, x2 = 0.6092	0.584
298.15 K, 101.33 kPa, x2 = 0.7009	0.653
298.15 K, 101.33 kPa, x2 = 0.7209	0.69
298.15 K, 101.33 kPa, x2 = 0.8165	0.766
298.15 K, 101.33 kPa, x2 = 0.8241	0.808
298.15 K, 101.33 kPa, x2 = 0.9	0.883
298.15 K, 101.33 kPa, x2 = 0.907	0.922
298.15 K, 101.33 kPa, x2 = 0.9744	1.039
303 K, 101.33 kPa, x2 = 0.3521	0.43
303 K, 101.33 kPa, x2 = 0.5917	0.566
303 K, 101.33 kPa, x2 = 0.7654	0.698
303 K, 101.33 kPa, x2 = 0.8969	0.863
303.15 K, 101 kPa, x1 = 0.1005	0.8186
303.15 K, 101 kPa, x1 = 0.202	0.695
303.15 K, 101 kPa, x1 = 0.3022	0.6164
303.15 K, 101 kPa, x1 = 0.4016	0.5429
303.15 K, 101 kPa, x1 = 0.5079	0.4865
303.15 K, 101 kPa, x1 = 0.5967	0.4506
303.15 K, 101 kPa, x1 = 0.7041	0.4154
303.15 K, 101 kPa, x1 = 0.8008	0.3953
303.15 K, 101 kPa, x1 = 0.8935	0.3827
308.15 K, 101 kPa, x1 = 0.1005	0.7535
308.15 K, 101 kPa, x1 = 0.202	0.6432
308.15 K, 101 kPa, x1 = 0.3022	0.5695
308.15 K, 101 kPa, x1 = 0.4016	0.5077
308.15 K, 101 kPa, x1 = 0.5079	0.4521
308.15 K, 101 kPa, x1 = 0.5967	0.4271
308.15 K, 101 kPa, x1 = 0.7041	0.3957
308.15 K, 101 kPa, x1 = 0.8008	0.3691
308.15 K, 101 kPa, x1 = 0.8935	0.3633
313 K, 101.33 kPa, x2 = 0.3521	0.38
313 K, 101.33 kPa, x2 = 0.5917	0.483
313 K, 101.33 kPa, x2 = 0.7654	0.587
313 K, 101.33 kPa, x2 = 0.8969	0.719
323 K, 101.33 kPa, x2 = 0.3521	0.337
323 K, 101.33 kPa, x2 = 0.5917	0.417
323 K, 101.33 kPa, x2 = 0.7654	0.5
323 K, 101.33 kPa, x2 = 0.8969	0.606

CCCCCCCC + CCO
298.15 K, 101.33 kPa
Conditions	viscosity [mPa·s]
x2 = 0.0986	0.523
x2 = 0.2153	0.533
x2 = 0.3204	0.557
x2 = 0.4431	0.603
x2 = 0.6117	0.686
x2 = 0.7378	0.779
x2 = 0.8362	0.873
x2 = 0.9134	0.973
x2 = 0.9773	1.071

CN(C)C=O + CCO
viscosity [mPa·s], 101 kPa
Conditions	293.15 K	298.15 K	303.15 K	313.15 K	323.15 K
x1 = 0.3863	–	0.881	–	–	–
x1 = 0.5	–	–	0.758	0.649	0.563
x2 = 0.0999	0.871	0.819	0.77	0.682	0.61
x2 = 0.2	0.876	0.818	0.767	0.68	0.604
x2 = 0.3	0.882	0.822	0.77	0.681	0.603
x2 = 0.4	0.881	0.821	0.767	0.674	0.596
x2 = 0.5001	0.872	0.813	0.759	0.668	0.592
x2 = 0.6	0.886	0.825	0.769	0.67	0.59
x2 = 0.7	0.919	0.852	0.791	0.685	0.598
x2 = 0.8	0.97	0.897	0.828	0.712	0.616
x2 = 0.9001	1.067	0.977	0.897	0.762	0.651

COCC(C)O (stereo not drawn) + CCO
viscosity [mPa·s], 101.33 kPa
Conditions	298.15 K	308.15 K	318.15 K
x1 = 0.0501	1.128	0.933	0.779
x1 = 0.1	1.174	0.964	0.801
x1 = 0.15	1.215	0.994	0.822
x1 = 0.2	1.253	1.025	0.846
x1 = 0.25	1.297	1.055	0.866
x1 = 0.3003	1.333	1.081	0.887
x1 = 0.35	1.369	1.111	0.909
x1 = 0.3999	1.405	1.138	0.928
x1 = 0.45	1.44	1.163	0.947
x1 = 0.5	1.477	1.188	0.964
x1 = 0.5498	1.508	1.211	0.979
x1 = 0.5998	1.537	1.23	0.991
x1 = 0.6498	1.564	1.245	1.004
x1 = 0.7	1.589	1.263	1.017
x1 = 0.75	1.61	1.275	1.029
x1 = 0.8002	1.629	1.289	1.038
x1 = 0.8498	1.647	1.3	1.048
x1 = 0.8999	1.665	1.308	1.058
x1 = 0.9499	1.677	1.318	1.068

O=[N+]([O-])c1ccccc1 + CCO
viscosity [mPa·s], 101.33 kPa
Conditions	x1 = 0.0399	x1 = 0.0856	x1 = 0.1382	x1 = 0.1997	x1 = 0.2723	x1 = 0.3595	x1 = 0.4661	x1 = 0.5995	x1 = 0.7711
298.15 K	1.06	1.048	1.061	1.073	1.116	1.166	1.201	1.317	1.44
303.15 K	0.9662	0.9579	0.9691	0.9809	1.01	1.068	1.085	1.207	1.312

C=COCCCC + CCOC(=O)OCC
viscosity [mPa·s], 100 kPa
Conditions	x2 = 0.1011	x2 = 0.2003	x2 = 0.2975	x2 = 0.4029	x2 = 0.4992	x2 = 0.6014	x2 = 0.6975	x2 = 0.7978	x2 = 0.9004
303.15 K	0.406	0.429	0.452	0.48	0.509	0.542	0.575	0.614	0.656
308.15 K	0.386	0.406	0.43	0.454	0.483	0.515	0.547	0.583	0.62
313.15 K	0.365	0.383	0.403	0.426	0.451	0.481	0.511	0.545	0.582
